Laboratory results: paper PMC12845261, “Design, Synthesis, and Biological Evaluation of N-Acyl-Hydrazone-Linked Quinazolinone Derivatives with Antioxidant, Antimicrobial, and Anticancer Potential” (Pharmaceuticals, 2025)
Several values for one entry are separate records, joined by “and”; a condition that tells them apart may be missing. Equal values may be shown once.

Columns and labels:
Artemia franciscana = Artemia franciscana toxicity assay (nauplii lethality); conditions: from LC50 at 48 h, standard aquatic toxicity classifications [53]
Method: (§1) The brine shrimp cysts (Artemia franciscana) were sourced from Great Salt Lake (USA) through Ocean Star International (Burlingame, CA, USA) via S.K. Trading (Bangkok, Thailand), which carried out the repackaging. Artificial seawater was prepared by dissolving a CoralMarine salt mixture (Grotech) in distilled water to achieve a concentration of about 30 g/L. The cysts were placed in artificial seawater at 25 °C under vigorous aeration. They were allowed to hatch 48 h before the onset of the test, the brine shrimp nauplii stage being selected for the toxicity assay.
(§2) The analyzed compounds were dissolved in 100 μL DMSO and then suspended in seawater to a final volume of 10 mL. The starting concentration was 1000 μM, followed by binary dilutions with seawater: 500 μM, 250 μM, 125 μM and 62.5 μM. A blank solution of 100 μL DMSO and seawater up to 10 mL was also prepared. 24 well-plates (6 × 4) were used and the assay was conducted in triplicate for each concentration and the blank solution. 15 ± 3 nauplii were added to each well, and the plates were placed into the dark. The viability of the nauplii was monitored at 24 and 48 h.
(§3) The LC50 was estimated by interpolation using RStudio 2025.09.2 [84, 85], the drc package. Several non-linear regression models were applied: generalized log logistic regressions (LL.2, LL2.2, LL.4, LL.5) and Weibull functions (W1.2, W1.3, W2.2, W2.3).

[1] = as above; conditions: Artemia franciscana (brine shrimp) nauplii, in vivo
Method: as §1, §2, §3

With `Cc1nc2ccccc2c(=O)n1CC(=O)NN` [Compound 2, 2-(2-methyl-4-oxoquinazolin-3(4H)-yl)acetohydrazide] the Toxicity class (Artemia franciscana) was “moderate toxicity” and the LC50 at 48 h [1] was 335 µM and 77.2 µg/mL.
